Source: patent US5321024A, “Antiviral pharmaceutical composition for treating lymphocytes” (Godecke Aktiengesellschaft, priority 1991, dated 1994)
pEC50, pIC50: −log10 of the molar value.

How the values were obtained:
[1] = test system: HIV viruses (cell line C8166); assay: in vitro anti-HIV protection assay in cell line C8166; assay type: cell-based
Excerpt: (§1) This is usually substantially more difficult to protect so, for example, in the case of the use of 3-azide-3'-deoxythymidine (AZT), a 100-fold higher dosage is needed than in the use of the compound of the present invention.
(§2) The above assay is described in the Journal of the National Cancer Institute, Vol. 81, No. 8, Apr. 19, 1989.

[2] = test system: HIV viruses (CEM-IW cell line); assay: in vitro anti-HIV assay in CEM-IW cell line; assay type: cell-based; conditions: Human immunodeficiency virus 1
Excerpt: as §1, §2

reverse transcriptase = reverse transcriptase (Human immunodeficiency virus type 1 group M subtype B, UniProt P04585); assay: inhibition of reverse transcriptase; assay type: biochemical; conditions: in vitro
Excerpt: as §1

HIV viruses = assay: CPE cell line assay against p24 antigen; assay type: cell-based; conditions: Human immunodeficiency virus 1, in vitro
Excerpt: as §1, §2

[3] = test system: HIV viruses (T-lymphocytes); assay: protection of T-lymphocytes against the cytopathic effect of HIV viruses; assay type: cell-based

Structure (SMILES): Cc1cn([C@H]2C[C@H](N=[N+]=[N-])[C@@H](CO)O2)c(=O)[nH]c1=O [AZT, 3-azide-3'-deoxythymidine, reference compound]
- dosage needed relative to the compound of the present invention ([1]; cell line C8166, higher dosage needed): 100 fold

Structure (SMILES): O=S1(c2ccccc2)=NC(=S)Nc2ccccc21 (stereo not drawn) [Example 1, 3,4-Dihydro-1-phenyl-3-thio-1,2,4-benzothiadiazine 1-oxide]
- pEC50 [2]: ~5.70
- pIC50 (reverse transcriptase): 5.70
- pEC50 (HIV viruses): ~5.78
- protection of T-lymphocytes against the cytopathic effect of HIV viruses [3]: complete protection
- values found for the cell line C8166 compared with the other cell line values ([1]; cell line C8166, usually substantially more difficult to protect): comparable values
